Like-named read-outs stand apart in the source and are kept apart here.
Tested on: GRMD plasma proteins
Format: in vivo, dog
[1] = Post-Treatment to GRMD baseline, Decreased in GRMD

O=c1ccc(-c2cnc(OCC(F)(F)F)nc2)nn1Cc1cncc(F)c1 [EDG-5506]
Change from GRMD Baseline (fraction) (Human Chorionic Gonadotropin (CGA CGB), Post-Treatment to GRMD baseline): 2.5964 fraction
Change from GRMD Baseline (fraction) (Insulin (INS), EDG-5506 treatment to GRMD baseline): 0.2426 fraction
Change from GRMD Baseline (fraction) (Insulin (INS), Post-Treatment to GRMD baseline): 0.0736 fraction
Change from GRMD Baseline (fraction) (Interferon lambda-2 (IFNL2), EDG-5506 treatment to GRMD baseline): 0.1683 fraction
Change from GRMD Baseline (fraction) (Interferon lambda-2 (IFNL2), Post-Treatment to GRMD baseline): 0.4121 fraction
Change from GRMD Baseline (fraction) (Interleukin-12 (IL12A IL12B), EDG-5506 treatment to GRMD baseline): 0.1563 fraction
Change from GRMD Baseline (fraction) (Interleukin-12 (IL12A IL12B), Post-Treatment to GRMD baseline): 0.0477 fraction
Change from GRMD Baseline (fraction) (Leucine-rich repeat transmembrane protein FLRT2 (FLRT2), EDG-5506 treatment to GRMD baseline): 0.1078 fraction
Change from GRMD Baseline (fraction) (Leucine-rich repeat transmembrane protein FLRT2 (FLRT2), Post-Treatment to GRMD baseline): -0.1244 fraction
Change from GRMD Baseline (fraction) (Megakaryocyte-associated tyrosine-protein kinase (MATK), EDG-5506 treatment to GRMD baseline): 0.083 fraction
Change from GRMD Baseline (fraction) (Megakaryocyte-associated tyrosine-protein kinase (MATK), Post-Treatment to GRMD baseline): 0.0043 fraction
Change from GRMD Baseline (fraction) (Mitogen-activated protein kinase 9 (MAPK9), EDG-5506 treatment to GRMD baseline): 0.1873 fraction
Change from GRMD Baseline (fraction) (Mitogen-activated protein kinase 9 (MAPK9), Post-Treatment to GRMD baseline): -0.0197 fraction
Change from GRMD Baseline (fraction) (Myc proto-oncogene protein (MYC), EDG-5506 treatment to GRMD baseline): 0.0043 fraction
Change from GRMD Baseline (fraction) (Myc proto-oncogene protein (MYC), Post-Treatment to GRMD baseline): 0.0245 fraction
Change from GRMD Baseline (fraction) (Nascent polypeptide-associated complex subunit alpha (NACA), EDG-5506 treatment to GRMD baseline): -0.0939 fraction
Change from GRMD Baseline (fraction) (Nascent polypeptide-associated complex subunit alpha (NACA), Post-Treatment to GRMD baseline): -0.019 fraction
Change from GRMD Baseline (fraction) (Neurexin-1-beta (NRXN1), EDG-5506 treatment to GRMD baseline): 0.163 fraction
Change from GRMD Baseline (fraction) (Neurexin-1-beta (NRXN1), Post-Treatment to GRMD baseline): 0.0798 fraction
Change from GRMD Baseline (fraction) (Neuropilin-1 (NRP1), EDG-5506 treatment to GRMD baseline): -0.1066 fraction
Change from GRMD Baseline (fraction) (Neuropilin-1 (NRP1), Post-Treatment to GRMD baseline): -0.2144 fraction
Change from GRMD Baseline (fraction) (Neutrophil elastase (ELANE), EDG-5506 treatment to GRMD baseline): 0.113 fraction
Change from GRMD Baseline (fraction) (Neutrophil elastase (ELANE), Post-Treatment to GRMD baseline): 0.0205 fraction
Change from GRMD Baseline (fraction) (Neutrophil-activating peptide 2 (PPBP), EDG-5506 treatment to GRMD baseline): -0.0999 fraction
Change from GRMD Baseline (fraction) (Neutrophil-activating peptide 2 (PPBP), Post-Treatment to GRMD baseline): 0.0464 fraction
Change from GRMD Baseline (fraction) (Osteocalcin (BGLAP), EDG-5506 treatment to GRMD baseline): 0.2208 fraction
Change from GRMD Baseline (fraction) (Osteocalcin (BGLAP), Post-Treatment to GRMD baseline): -0.0043 fraction
Change from GRMD Baseline (fraction) (PILR alpha-associated neural protein (PIANP), EDG-5506 treatment to GRMD baseline): 0.0458 fraction
Change from GRMD Baseline (fraction) (PILR alpha-associated neural protein (PIANP), Post-Treatment to GRMD baseline): -0.0155 fraction
Change from GRMD Baseline (fraction) (Periostin (POSTN), EDG-5506 treatment to GRMD baseline): 0.1077 fraction
Change from GRMD Baseline (fraction) (Periostin (POSTN), Post-Treatment to GRMD baseline): -0.1102 fraction
Change from GRMD Baseline (fraction) (Pleiotrophin (PTN), EDG-5506 treatment to GRMD baseline): 0.0122 fraction
Change from GRMD Baseline (fraction) (Pleiotrophin (PTN), Post-Treatment to GRMD baseline): -0.0998 fraction
3-hydroxyisobutyrate dehydrogenase, mitochondrial (HIBADH): Change from GRMD Baseline (fraction) [1]: 0.0399 fraction
14-3-3 protein beta/alpha (YWHAB): Change from GRMD Baseline (fraction) [1]: -0.1281 fraction
14-3-3 protein sigma (SFN): Change from GRMD Baseline (fraction) [1]: -0.1134 fraction
72 kDa type IV collagenase (MMP2): Change from GRMD Baseline (fraction) [1]: -0.3542 fraction
Adrenomedullin (ADM): Change from GRMD Baseline (fraction) [1]: -0.0931 fraction
Aggrecan core protein (ACAN): Change from GRMD Baseline (fraction) [1]: -0.1233 fraction
Alpha-synuclein (SNCA): Change from GRMD Baseline (fraction) [1]: -0.0439 fraction
Apolipoprotein B (APOB): Change from GRMD Baseline (fraction) [1]: -0.0228 fraction
Appetite-regulating hormone (GHRL): Change from GRMD Baseline (fraction) [1]: 0.0233 fraction
Atrial natriuretic factor (NPPA): Change from GRMD Baseline (fraction) [1]: 0.0027 fraction
BDNF/NT-3 growth factors receptor (NTRK2): Change from GRMD Baseline (fraction) [1]: -0.0065 fraction
BH3-interacting domain death agonist (BID): Change from GRMD Baseline (fraction) [1]: 0.0184 fraction
Bcl-2-related protein A1 (BCL2A1): Change from GRMD Baseline (fraction) [1]: 0.0661 fraction
Bone morphogenetic protein 6 (BMP6): Change from GRMD Baseline (fraction) [1]: -0.0925 fraction
Bone morphogenetic protein 10 (BMP10): Change from GRMD Baseline (fraction) [1]: -0.0513 fraction
C-X-C motif chemokine 10 (CXCL10): Change from GRMD Baseline (fraction) [1]: 0.0358 fraction
C-type mannose receptor 2 (MRC2): Change from GRMD Baseline (fraction) [1]: -0.1031 fraction
CD166 antigen (ALCAM): Change from GRMD Baseline (fraction) [1]: 0.0066 fraction
Cadherin-5 (CDH5): Change from GRMD Baseline (fraction) [1]: -0.1425 fraction
Carboxypeptidase E (CPE): Change from GRMD Baseline (fraction) [1]: 0.0109 fraction
Cell adhesion molecule 1 (CADM1): Change from GRMD Baseline (fraction) [1]: -0.1579 fraction
Chromogranin-A (CHGA): Change from GRMD Baseline (fraction) [1]: 0.0248 fraction
Ciliary neurotrophic factor receptor subunit alpha (CNTFR): Change from GRMD Baseline (fraction) [1]: -0.0624 fraction
Ck-beta-8-1 (CCL23): Change from GRMD Baseline (fraction) [1]: 0.0454 fraction
Coiled-coil domain-containing protein 80 (CCDC80): Change from GRMD Baseline (fraction) [1]: 0.0372 fraction
Collagen alpha-1(VIII) chain (COL8A1): Change from GRMD Baseline (fraction) [1]: 0.1221 fraction

— paper PMC10178848, “Modulating fast skeletal muscle contraction protects skeletal muscle in animal models of Duchenne muscular dystrophy” (The Journal of Clinical Investigation, 2023)
